Reference: PMC5584945, “Evaluation of robenidine analog NCL195 as a novel broad-spectrum antibacterial agent” (PLoS ONE, 2017)

Tests used:
S. pneumoniae D39 [1] = experiment: Membrane potential, DiOC2(3) fluorescence; format: cell-based, Streptococcus pneumoniae; conditions: 16 μg/ml, pre-incubated 5 min; versus untreated and ampicillin
Protocol: To further examine the mechanism underlying the perturbation of the cell membrane of S. pneumoniae or S. aureus by the NCL compounds, the membrane potential of the cells was measured by fluorescence spectrometry using (DiOC2(3), essentially as described previously. Briefly, […] cells from an overnight HBA plate were grown in Todd-Hewitt broth supplemented with 1% yeast extract (THY) at 37°C, 5% CO2 until A600 nm = 0.5. […] The cuvette was then placed in a LS 55 Fluorescence Spectrometer (PerkinElmer) set at Ex. 488 nm/Em. 620 nm, with excitation and emission slit widths at 5 nm and 7 nm, respectively). […] All assays were performed at least twice.

[2] = Microsomal metabolic stability; format: in vitro ADME; conditions: pH 7.4; for microsomal CLint at 0.4 μg/ml / half-life at 0.4 μg/ml: microsomes; for half-life at 0.4 μg/ml: 0.4 μg/ml compound, 0.4 mg/ml protein, NADPH
Protocol: The metabolic stability assay was performed by incubating 0.4 μg/ml of each test compound with human and mouse liver microsomes (Xenotech, Lot# 1210057 and 1310211, respectively) suspended in 0.1 M pH 7.4 phosphate buffer at 37°C and 0.4 mg/ml protein concentration. The metabolic reaction was initiated by the addition of an NADPH-regenerating system (i.e. NADPH is the cofactor required for CYP450-mediated metabolism) and quenched at various time points over a 60 min incubation period by the addition of acetonitrile containing diazepam as internal standard. Control samples (containing no NADPH) were included (and quenched at 2, 30 and 60 min) to monitor for potential degradation in the absence of cofactor. Test compound concentration vs time data were fitted to an exponential decay function to determine the first-order rate constant for substrate depletion. This was used to calculate a degradation half-life (T1/2), in vitro intrinsic clearance (CLINT), microsome-predicted blood clearance (CLblood) and a microsome-predicted hepatic extraction ratio (EH) according to the in vitro half-life method of Obach[53].

S. pneumoniae D39 [3] = experiment: Minimum bactericidal concentration (MBC); format: cell-based; conditions: Streptococcus pneumoniae
MDBK = experiment: Real-time cell viability, RealTime-Glo MT; format: cell-based, bovine; conditions: 2 or 8 μg/ml, up to 20 h post-treatment
Source text: (§1) In order to ensure minimal off target mammalian cell cytotoxicity, we assayed NCL812, NCL195 and NCL219 for in vitro cytotoxicity using a panel of adherent mammalian cell lines: Caco-2 (human colorectal adenocarcinoma cell line), HEL 299 (non-cancerous human lung fibroblast cell line), Hep G2 (human hepatocellular carcinoma cell line), MDBK (normal bovine kidney cell line) and MCF7 (human mammary gland adenocarcinoma cell line). Cell lines were maintained in Dulbecco’s Modified Eagle’s Medium (DMEM; […] After 24 h incubation, media was removed, washed once with medium without antibiotics and fresh medium supplemented with 10% (vol/vol) FBS was added. […] Following exposure for 24 h, WST-1 reagent was added to each well at a final concentration of 10%. […] The IC50 value for each compound against each cell line was determined via non-linear regression (three parameters) using GraphPad Prism v6 software. The robustness of assays was confirmed with selected cell lines (Hep G2 and MDBK) seeded onto a 96–well Microwell Nunclon Delta Surface plate (Thermo Scientific Nunc; Cat No: 136101) at 5 × 10^4 cells per well.

[4] = tested on: vancomycin-resistant enterococci (VRE); experiment: MIC, broth micro-dilution (CLSI); format: cell-based, enterococci (porcine isolates); conditions: for MIC50 / MIC90 / MIC: Enterococcus, VRE
Caco-2 = experiment: In vitro cytotoxicity, WST-1; format: cell-based; conditions: Homo sapiens, 24 h exposure, read-out: IC50 values ± SEM
Source text: as §1

Hep G2 = experiment: In vitro cytotoxicity, WST-1; format: cell-based; conditions: Homo sapiens, HepG2; 24 h exposure; read-out: IC50 values ± SEM
Source text: as §1

MCF7 = experiment: In vitro cytotoxicity, WST-1; format: cell-based; conditions: Homo sapiens, 24 h exposure, read-out: IC50 values ± SEM
Source text: as §1

HEL 299 = experiment: In vitro cytotoxicity, WST-1; format: cell-based; conditions: Homo sapiens, 24 h exposure, read-out: IC50 values ± SEM
Source text: as §1

[5] = Kinetic solubility by nephelometry; format: physicochemical; conditions: kinetic from dmso stock
[6] = S3 Table isolates, absence of FBS

With `Cl.N=C(NN=Cc1ccc(Cl)cc1)NN=Cc1ccc(Cl)cc1` [NCL812, 2,2'-bis[(4-chlorophenyl)methylene] carbonimidic dihydrazide hydrochloride] the “Effect on generated membrane potential” value (S. pneumoniae D39 [1]) was “large reduction in the magnitude of the generated membrane potential”, the “Predicted CLblood” value ([2]; human, 0.4 μg/ml) was <5 mL/min/kg and the microsomal CLint at 0.4 μg/ml ([2]; human) was < 7 µL/min/mg. The half-life at 0.4 μg/ml ([2]; human) was > 4.12 h, the half-life at 0.4 μg/ml ([2]; mouse) was > 4.12 h and the “Predicted CLblood” value ([2]; mouse, 0.4 μg/ml) was <16 mL/min/kg. The “Predicted EH” value ([2]; mouse, 0.4 μg/ml) was <0.13, the microsomal CLint at 0.4 μg/ml ([2]; mouse) was < 7 µL/min/mg and the MBC (S. pneumoniae D39 [3]) was 8 µg/mL. The “Effect on cell viability (real-time)” value (MDBK) was “affected viability at 8 μg/ml”, the “Fold increase of MIC range in the presence of 10% FBS” value ([4]; 10% FBS versus no FBS) was 8-16 fold and the MIC range ([4]; 20 isolates) was 2 to 4 µg/mL. It also gave an MIC50 ([4]; S3 Table isolates, 10% FBS) of 32 µg/mL, an MIC90 ([4]; S3 Table isolates, 10% FBS) of 32 µg/mL and an MIC50 [4, 6] of 2 µg/mL. For the same compound, the MIC90 [4, 6] was 2 µg/mL, the MIC ([4]; VRE 1 (49 FR), 10% FBS) was 32 µg/mL and the MIC ([4]; VRE 1 (49 FR), absence of FBS) was 2 µg/mL. The MIC ([4]; VRE 2 (53 FR), 10% FBS) was 32 µg/mL, the MIC ([4]; VRE 2 (53 FR), absence of FBS) was 2 µg/mL and the MIC ([4]; VRE 3 (55 FR), 10% FBS) was 32 µg/mL. It also gave an MIC ([4]; VRE 3 (55 FR), absence of FBS) of 2 µg/mL, an MIC ([4]; VRE 4 (57 FR), 10% FBS) of 32 µg/mL and an MIC ([4]; VRE 4 (57 FR), absence of FBS) of 2 µg/mL. It also gave an MIC ([4]; VRE5 (58 FR), 10% FBS) of 32 µg/mL, an MIC ([4]; VRE5 (58 FR), absence of FBS) of 4 µg/mL and an MIC ([4]; VRE 6 (59 FR), 10% FBS) of 32 µg/mL. For the same compound, the MIC ([4]; VRE 6 (59 FR), absence of FBS) was 2 µg/mL, the MIC ([4]; VRE 7 (270 G), 10% FBS) was 32 µg/mL and the MIC ([4]; VRE 7 (270 G), absence of FBS) was 4 µg/mL. It also gave an MIC ([4]; VRE 8 (277 G), 10% FBS) of 32 µg/mL, an MIC ([4]; VRE 8 (277 G), absence of FBS) of 2 µg/mL and an MIC ([4]; VRE 9 (61 FR), 10% FBS) of 32 µg/mL. For the same compound, the MIC ([4]; VRE 9 (61 FR), absence of FBS) was 2 µg/mL, the MIC ([4]; VRE 10 (62 FR), 10% FBS) was 32 µg/mL and the MIC ([4]; VRE 10 (62 FR), absence of FBS) was 2 µg/mL. The MIC ([4]; VRE 11 (284 G), 10% FBS) was 32 µg/mL, the MIC ([4]; VRE 11 (284 G), absence of FBS) was 2 µg/mL and the MIC ([4]; VRE 12 (290 G), 10% FBS) was 32 µg/mL. It also gave an MIC ([4]; VRE 12 (290 G), absence of FBS) of 2 µg/mL, an MIC ([4]; VRE 13 (251 G), 10% FBS) of 32 µg/mL and an MIC ([4]; VRE 13 (251 G), absence of FBS) of 2 µg/mL. For the same compound, the MIC ([4]; VRE 14 (252 G), 10% FBS) was 32 µg/mL, the MIC ([4]; VRE 14 (252 G), absence of FBS) was 2 µg/mL and the MIC ([4]; VRE 15 (63 FR), 10% FBS) was 32 µg/mL. The MIC ([4]; VRE 15 (63 FR), absence of FBS) was 2 µg/mL, the MIC ([4]; VRE 16 (60 FR), 10% FBS) was 32 µg/mL and the MIC ([4]; VRE 16 (60 FR), absence of FBS) was 4 µg/mL. For the same compound, the MIC ([4]; VRE 17 (45 FR), 10% FBS) was 32 µg/mL, the MIC ([4]; VRE 17 (45 FR), absence of FBS) was 2 µg/mL and the MIC ([4]; VRE 18 (69 W), 10% FBS) was 32 µg/mL. It also gave an MIC ([4]; VRE 18 (69 W), absence of FBS) of 2 µg/mL, an MIC ([4]; VRE 19 (70 W), 10% FBS) of 32 µg/mL and an MIC ([4]; VRE 19 (70 W), absence of FBS) of 2 µg/mL. It also gave an MIC ([4]; VRE 20 (78 W), 10% FBS) of 32 µg/mL, an MIC ([4]; VRE 20 (78 W), absence of FBS) of 2 µg/mL and an MIC range ([4]; S3 Table isolates, 10% FBS) of 32 µg/mL. For the same compound, the MIC range [4, 6] was 2 to 4 µg/mL, the IC50 (Caco-2) was 8.2 ± 0.1 µg/mL and the IC50 (Hep G2) was 9.4 ± 0.1 µg/mL. The IC50 (MCF7) was 12 ± 0.2 µg/mL, the IC50 (HEL 299) was 4.6 ± 0.1 µg/mL and the solubility ([5]; pH 2.0) was 6.3 to 12.5 µg/mL. For the same compound, the solubility ([5]; pH 6.5) was < 1.6 µg/mL.
